Assay results published in patent US9873883B2, “Glyphosate resistant plants and associated methods” (Dow AgroSciences LLC, priority 2012, dated 2018).

Assays:
[1] = biological target: T1, Glycine max (soybean) EPSP synthase DGT-1 variant DGT-1 v6 (G→A) (Glycine max, UniProt I1J7U9, G182A); test: In vitro kinetic assay (inorganic phosphate production, malachite green); format: biochemical; conditions: for IC50: IC50 (glyphosate)
T1 sequence (I1J7U9 with tags, fused parts or gaps G182A): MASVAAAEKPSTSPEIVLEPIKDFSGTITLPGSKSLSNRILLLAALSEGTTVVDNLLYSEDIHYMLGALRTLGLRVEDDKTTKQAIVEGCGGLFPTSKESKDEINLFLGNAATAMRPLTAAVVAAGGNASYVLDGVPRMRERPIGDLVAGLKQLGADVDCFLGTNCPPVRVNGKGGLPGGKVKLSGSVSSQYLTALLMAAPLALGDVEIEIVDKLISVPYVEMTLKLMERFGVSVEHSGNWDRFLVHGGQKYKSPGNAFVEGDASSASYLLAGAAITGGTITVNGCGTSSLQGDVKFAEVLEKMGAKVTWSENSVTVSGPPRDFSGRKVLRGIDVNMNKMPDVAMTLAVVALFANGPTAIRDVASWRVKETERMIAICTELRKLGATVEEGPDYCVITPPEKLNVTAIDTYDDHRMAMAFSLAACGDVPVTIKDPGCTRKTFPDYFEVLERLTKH
Description: (§1) The following Class I enzymes: DGT-1 from Glycine max, DGT-3 from Brassica napus (GENBANK ACC NO: P17688), and DGT-7 from Triticum aestivum (GENBANK ACC NO: EU977181) were used as a comparison. The Class I EPSP synthase enzymes and mutant variants thereof were synthesized and evaluated. A mutation introduced into the plant EPSP synthase enzymes consisted of the Glycine to Alanine mutation made within the EPSP synthase enzyme at a similar location as that of the G96A mutation from the E. coli version of the enzyme. In addition, Threonine to Isoleucine and Proline to Serine mutations were introduced within these Class I EPSP synthase enzymes at analogous positions as that of amino acid 97 (T to I) and amino acid 101 (P to S) in the EPSP synthase of E. coli as described in Funke et al., (2009).
(§2) The location of the amino acid residue which was mutated from glycine to alanine is indicated by the first asterisk. The location of the amino acid residue which was mutated from threonine to isoleucine is indicated by the second asterisk. The location of the third amino acid residue which was mutated from proline to serine is indicated by the third asterisk. These mutations were introduced into different versions of DGT-1, DGT-3, and DGT-7. The different versions of the genes which contain the mutations are described in more detail below.
(§3) Additional constructs containing the dgt-1, dgt-3 and dgt-7 were synthesized. These constructs were used for in vitro testing of the dgt-1 v5, dgt-1 v6, dgt-1 v7, dgt-1 v8, dgt-3 v6, dgt-3 v7, dgt-3 v8, dgt-7 v5, dgt-7 v6, dgt-7 v7, and dgt-7 v8 gene sequences were outsourced to GeneArt for synthesis and cloning. The synthesized genes were cloned into the pET28 expression vector. The resulting constructions were labeled as pDAB102028 containing dgt-1 v5, pDAB102029 containing dgt-1 v6, pDAB102032 containing dgt-1 v7, pDAB102034 containing dgt-1 v8, pDAB100429 containing dgt-3 v6, pDAB100442 containing dgt-3 v7, pDAB100430 containing dgt-3 v8, pDAB102036 containing dgt-7 v5, pDAB102038 containing dgt-7 v6, pDAB102040 containing dgt-7 v7, and pDAB102042 containing dgt-7 v8.
(§4) Recombinant DGT proteins were overexpressed in Rosetta2™ (DE3) cells (Novagen, Madison, Wis.) from the constructs described above. A single colony was used to inoculate 50 mL starter cultures of LB containing chloramphenicol (25 μg/mL) and kanamycin (50 μg/mL) which were cultivated overnight at 37° C. The overnight cultures were used to inoculate 1 L of LB containing chloramphenicol (25 μg/mL) and kanamycin (50 μg/mL). The cultures were grown at 37° C. to an O.D.600=0.6 then placed in an ice water bath for 10 minutes. Expression of the target proteins was achieved by addition of IPTG to a final concentration of 500 μM. Induction was allowed to proceed overnight at 20° C. followed by harvesting via centrifugation at 8,000 rpm for 20 minutes. The cell pellets were stored at −80° C. until required for purification. All purification steps were carried out at 4° C.
(§5) Cell pellets from 1 L cultures were resuspended in 20-30 mL Buffer A (50 mM HEPES pH 7.5, 150 mM KCl, 2 mM DTT, 1 mM EDTA, 20 mM imidazole, and 5% glycerol). COMPLETE™ protease inhibitor cocktail (1 tablet/50 mL, Roche, Indianapolis, Ind.) and lysozyme (1 mg/mL, Sigma-Aldrich, St. Louis, Mo.) were then added and the suspension was stirred for 20 minutes. Cell lysis was performed using a Branson Sonifier 250 (3×60 second bursts) followed by removal of the cell debris by centrifugation at 16,000 rpm for 45 minutes. DGT enzymes were purified to homogeneity in one step via immobilized metal affinity chromatography (IMAC) using a 5 mL HisTrap FF crude column. The column was equilibrated in Buffer A and the sample was loaded in the same buffer. The column was then washed with 10 column volumes of Buffer A followed by elution in a 0-100% Buffer B (50 mM HEPES pH 7.5, 200 mM KCl, 2 mM DTT, 1 mM EDTA, 500 mM imidazole, and 5% glycerol) linear gradient over 25 column volumes. […]

[2] = biological target: T2, Brassica napus (canola) EPSP synthase DGT-3 (GENBANK P17688) variant DGT-3 v8 (T→I, P→S; TIPS) (Brassica napus, UniProt P17688, P178S/T174I); test: as above; format: biochemical
T2 construct: made in house; host or cells: E. coli Rosetta2 (DE3)
T2 sequence (P17688 73-516 T174I/P178S): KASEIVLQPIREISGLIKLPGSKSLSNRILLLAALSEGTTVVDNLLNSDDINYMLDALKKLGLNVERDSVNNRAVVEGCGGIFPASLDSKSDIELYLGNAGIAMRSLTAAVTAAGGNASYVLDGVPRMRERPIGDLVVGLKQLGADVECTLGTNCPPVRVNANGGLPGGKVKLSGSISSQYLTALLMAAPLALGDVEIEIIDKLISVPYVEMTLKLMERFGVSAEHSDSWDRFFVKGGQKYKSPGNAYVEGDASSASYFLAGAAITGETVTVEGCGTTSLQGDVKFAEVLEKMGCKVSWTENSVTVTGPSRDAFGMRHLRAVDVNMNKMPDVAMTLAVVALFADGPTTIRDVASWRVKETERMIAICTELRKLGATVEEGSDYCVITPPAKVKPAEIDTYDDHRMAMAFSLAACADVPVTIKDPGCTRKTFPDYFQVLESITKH
Description: as §1, §2, §3, §4, §5

| SMILES | IC50 ([1]; at 60 μM PEP) | IC50 ([1]; at 1 mM PEP) | IC50 ([2]; IC50 (glyphosate), at 60 μM PEP) | IC50 ([2]; IC50 (glyphosate), at 1 mM PEP) | IC50 ([2]; tolerance to glyphosate, PEP concentration not given) | increase of Km for PEP ([1]; G to A mutation vs un-mutated) | kcat/Km ([2]; PEP, pH 7.5, 1 mM S3P) |
| --- | --- | --- | --- | --- | --- | --- | --- |
| O=C(O)CNCP(=O)(O)O [glyphosate, N-(phosphonomethyl)glycine] | 17.3 mM | 21.1 mM | 4.8 mM | 13.3 mM | 3 to 6 mM |  |  |
| C=C(OP(=O)(O)O)C(=O)O [PEP, phosphoenolpyruvate] |  |  |  |  |  | ~8 fold | 32900 M⁻¹ s⁻¹ |
